Patent US20250213547A1, “METHODS OF TREATING NEUROLOGICAL DISEASES” (priority 2022, published 2025)

How the values were obtained:
[1] = Relative stability of crystalline polymorphs; format: physicochemical; details: Form II compared with Form I
CH24H = target: T1, CH24H (Homo sapiens, UniProt Q9Y6A2); test: PK/PD (PK/OE/24HC) turnover modeling; details: turnover model estimate
T1 construct: from tissue; host or cells: brain of living human trial subjects (in vivo)
From the text: Similar to the PK model, the PK/PD model was developed as a population mixed-effects model and incorporated the individual PK parameters from the final PK population model. A turnover model was used to characterize changes in plasma 24HC overtime. Plasma 24HC was considered to be at steady-state baseline (BL) before the start of treatment. […] PK/PD covariates were screened in a procedure similar to the PK covariates. In the final PK/PD model, two covariates, A1-AGLP and body weight affected baseline 24HC.
The PK/PD analysis dataset consisted of 2165 24HC observations from 3 phase I trials. Four subjects from the ELEKTRA study with large IC50 estimates were excluded from the dataset. Additionally, 42 individuals with large conditional weighted residuals were excluded from the dataset. The final dataset contained 2107 24HC observations from 248 subjects. Table 26 summarizes the modeling dataset with reference to example numbers, respective clinical trial ID, subject numbers, regimen, and number of observations and doses. Tables 27 and 28 summarize the categorical covariates used in PK/OE/24HC analysis from the entire dataset and the ELEKTRA study subset, respectively.
Tables 29 and 30 summarize the mean continuous variables used in the PK/OE/24HC covariate analysis from the entire PK/OE/24HC population studied and the ELEKTRA subset, respectively. In addition to the shared variables, the PK/PD dataset contained the individual final estimates of the population PK model parameters (IND_ALAG1, IND_KA, IND_CL, IND_V2, IND_Q, IND_V3, and IND_F1). Subjects without individual PK parameter estimates (e.g. subjects from the placebo arms) were assigned to the respective geometric mean of the estimated individual parameter values.
A turnover model was used to describe changes in 24HC concentration over time. […] The following formula estimates change in 24HC: […]
The indirect exposure effect (EFF) was estimated by an Imax model:
The effect-site concentration was implemented as a delayed equilibrium with the plasma/brain transit rate parameter (KPLBR):
The scaling parameter KPLBR was previously estimated in a competitive enzyme occupancy model derived from PET brain imaging data (NCT02497235, Table 19). Parameters derived from this base model were fixed at their previous final PK population estimates derived from example 12. However, no random effects could be estimated without enzyme occupancy data. FIG. 26 depicts the basic model structure in relation to observed and unobserved data. There was a strong growth-related increase in baseline 24HC levels, which was only observed in young subjects.
The following variables were screened by forward inclusion, backward exclusion F-tests: • Growth/maturity: Weight, BMI, and age • Protein binding: Albumin (ALB), A1-AGLP • Liver function: AST, ALT, GGT, and ALP • Kidney function: Creatinine clearance (CRCL), eGFR • Categorical variables: Asian, sex. Ethnicity, and disease type

T1 sequence (Q9Y6A2 whole entry): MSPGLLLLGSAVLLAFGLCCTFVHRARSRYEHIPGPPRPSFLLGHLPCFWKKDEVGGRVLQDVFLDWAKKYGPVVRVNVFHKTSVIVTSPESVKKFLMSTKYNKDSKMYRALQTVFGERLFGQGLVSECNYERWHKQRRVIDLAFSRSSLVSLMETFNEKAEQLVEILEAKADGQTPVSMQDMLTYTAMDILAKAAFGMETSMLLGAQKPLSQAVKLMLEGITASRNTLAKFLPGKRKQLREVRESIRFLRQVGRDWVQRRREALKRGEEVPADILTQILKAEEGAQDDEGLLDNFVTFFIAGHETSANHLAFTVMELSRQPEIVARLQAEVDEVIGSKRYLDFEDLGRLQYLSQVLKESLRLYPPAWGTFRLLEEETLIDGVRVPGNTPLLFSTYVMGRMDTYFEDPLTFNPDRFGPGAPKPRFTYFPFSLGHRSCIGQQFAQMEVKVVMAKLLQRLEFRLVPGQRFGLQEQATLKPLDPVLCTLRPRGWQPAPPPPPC

SMILES | polymorph stability [1] | 24HC elimination rate (KOUT) (CH24H) [ng/mL/h] | 24HC synthesis rate (KIN) (CH24H) [h⁻¹]
O=C(c1cccnc1-c1ccncc1)N1CCC(O)(Cc2ccccc2)CC1 [Form II, (4-benzyl-4-hydroxypiperidin-1-yl) (2,4′-bipyridin-3-yl) methanone] | more stable than Form I |  | 
CC(C)C(O)CC[C@@H](C)[C@H]1CC[C@H]2[C@@H]3CC=C4C[C@@H](O)CC[C@]4(C)[C@H]3CC[C@]12C (stereo partly drawn) [24HC, 24-hydroxycholesterol] |  | 0.02 | 1.09
